Reference: US11006626B2, “Compounds for protection of cells” (Sulfateq B.V., priority 2012, dated 2021)

Tests used:
Assay type in all cases: cell-based
PRP platelets [1] = test: PRP platelets stored with Sul 136, aggregation after stimulation with collagen; conditions: 10 mM
Protocol: (§1) […] • The color and coagulation properties were visually analysed. • The thrombocyte cells that survived were counted and it was evaluated whether the thrombocytes were aggregated. • It was evaluated if the thrombocytes still were able to function after stimulation by the addition of ADP or under influence of collagen in a 96 well plate. • The adhesion was evaluated, meaning the ability of the platelets to bind collagen in a 6 well plate preincubated with collagen. • Via an ELISA assay, it was evaluated whether thromboxane was secreted from the platelets. Thromboxane facilitates aggregation and is produced by activated blood platelets.
(§2) (+means that the cells show aggregation, ++means strong aggregation, these platelets can thus be activated upon stimulation, −means no aggregation upon stimulation)

blood platelets = test: Cold storage of PRP blood platelets, aggregation of thrombocytes after storage; design: key: − means that most of the thrombocytes were aggregated; a + indicates that a few cells were still viable but some cells aggregated; a ++ indicates that almost all cells were viable; conditions: 30 mM; PRP platelets stored at 4° C.; 264 hours
Protocol: PRP platelets were harvested and 2.1 ml was suspended in Poly Propylene tubes of 5 ml, closed with a stop.
Several compounds according to the invention were added to the blood platelets directly after preparing the PRP plasma and incubated during 10 minutes at 37° C. or 30 minutes at room temperature. The blood platelets with the compound were then stored at 4° C.
A control was stored under shaking conditions at room temperature. Another control was stored at 4° C. without the addition of a compound.
A sample was taken out of each tube after 264 hours after addition of the compound and tested as follows: • The color and coagulation properties were visually analysed. • The thrombocyte cells that survived were counted and it was evaluated whether the thrombocytes were aggregated. • It was evaluated if the thrombocytes still were able to function after stimulation by the addition of ADP or under influence of collagen in a 96 well plate. • The adhesion was evaluated, meaning the ability of the platelets to bind collagen in a 6 well plate preincubated with collagen. • Via an ELISA assay, it was evaluated whether thromboxane was secreted from the platelets. Thromboxane facilitates aggregation and is produced by activated blood platelets.
Table 3 provides an overview of the results of the addition of the compounds to the blood platelets and evaluates the aggregation of the thrombocytes after addition of the compound according to the invention and cooling until 4° C.

[2] = tested on: Human Embryo Kidney (HEK) 293 cells; test: Hypothermia/rewarming injury of HEK cells, trypan blue viability count
Protocol: Human Embryo Kidney (HEK) 293 cells were cultured in DMEM cell culture medium (Life Technologies, 41965-052) supplemented with fetal calf serum, penicillin and streptomycin. Cells were seeded at a density of 0.8-1.2E6 mL-1 in 25 cm2 polystyrene flasks, placed in a 37° C.
The compounds were dissolved in dimethyl sulfoxide (DMSO) to several concentrations. Before commencing experiments, this stock solution was dissolved in pre-warmed DMEM and further diluted to obtain a concentration range from 10 nM-1 mM. Cell culture medium was then replaced by these dilutions and cells were incubated in the presence of the compound for 1 hour. After incubation, lids were closed tightly and flasks were placed in a 4° C. room and cooled for 24 hours. After this cooling period, cells were placed back in the 37° C. incubator with lids closed and were allowed to rewarm for another 24 hours.
After this rewarming period, microscopic images were taken to assess cell morphology (Nikon D5100, Nikon Diaphot-TMD). Cell culture medium was collected and centrifuged (4 minutes, 2000 rpm). The supernatant was collected and pH was immediately measured to prevent equilibration of the pH by the carbonate buffer in the medium, while the pelleted cells were resuspended in 5 mL of PBS. Cells remaining in the flask were washed twice with phosphate buffered saline (PBS) while the washing product was discarded. Subsequently, the cells were trypsinized by addition of 0.5 mL of trypsine and pooled with the resuspended pellet. This cell suspension was then stained at a final concentration of 0.2% trypan blue (Sigma, T8154), followed by manual assessment of viability and cell number on a Bürker-Türk hemocytometer. To conclude the assay, cell culture medium glucose levels were measured (Roche Accutrend Plus) as an indication of metabolic activity. All of these steps were performed with care to prevent mechanical stress to influence or alter the viability of the cells after cooling.
The amount represents the % cells that survived. […] In the control, the same procedure was applied to two badges of HEK cells.

PRP platelets [3] = test: PRP platelets stored with Sul 136, aggregation after stimulation with collagen; design: key: +means that the cells show aggregation; ++means strong aggregation, these platelets can thus be activated upon stimulation; −means no aggregation upon stimulation
Protocol: as §1, §2

PRP platelets [4] = test: PRP platelets stored at 4° C. with Sul 136, number of cells that survived; conditions: for number of cells in % relative to the number of cells at time 0: 4° C.
Protocol: […] The blood platelets with the compound were then stored at 4° C.
and tested as follows: • The color and coagulation properties were visually analysed. • The thrombocyte cells that survived were counted and it was evaluated whether the thrombocytes were aggregated. • It was evaluated if the thrombocytes still were able to function after stimulation by the addition of ADP or under influence of collagen in a 96 well plate. • The adhesion was evaluated, meaning the ability of the platelets to bind collagen in a 6 well plate preincubated with collagen. • Via an ELISA assay, it was evaluated whether thromboxane was secreted from the platelets. Thromboxane facilitates aggregation and is produced by activated blood platelets.
PRP platelets were tested with the addition of Sul 136. […] The number of cells are given in % relative to the number of cells at time 0. 66% of the platelets stored at room temperature survived after 216 hours. Only 42.3% of the cells stored at 4° C. survived after 216 hours.

Cc1c(C)c2c(c(C)c1O)CCC(C)(C(=O)N1CCN(CC(=O)O)CC1)O2 (racemic) [SUL - 136, 2-(4-(6-hydroxy-2,5,7,8-tetramethylchroman-2-carbonyl)piperazin-1-yl)acetic acid]
activity after stimulation with collagen (PRP platelets [1]): showed still activity | Aggregation of blood platelets after storage (blood platelets): + | viability at 0.01 µM ([2]; Homo sapiens, HEK293, 24 h, 10 nM, 24 h at 4° C., 24 h rewarming, read-out: % cells that survived): 99.6% | viability at 0.1 µM ([2]; Homo sapiens, HEK293, 24 h, 100 nM, 24 h at 4° C., 24 h rewarming, read-out: % cells that survived): 100% | viability at 1 µM ([2]; Homo sapiens, HEK293, 24 h, 1 μM, 24 h at 4° C., 24 h rewarming, read-out: % cells that survived): 98.4% | viability at 10 µM ([2]; Homo sapiens, HEK293, 24 h, 10 μM, 24 h at 4° C., 24 h rewarming, read-out: % cells that survived): 99.5% | viability at 100 µM ([2]; Homo sapiens, HEK293, 24 h, 100 μM, 24 h at 4° C., 24 h rewarming, read-out: % cells that survived): 99.3% | viability at 1000 µM ([2]; Homo sapiens, HEK293, 24 h, 1 mM, 24 h at 4° C., 24 h rewarming, read-out: % cells that survived): 100% | % cells that survived, Mean ([2]; mean over the tested concentrations): 99% | aggregation of the PRP platelets after stimulation with collagen (PRP platelets [3]; 10 min 0.001 mM, 0 h): + | aggregation of the PRP platelets after stimulation with collagen (PRP platelets [3]; 10 min 0.01 mM, 0 h): + | aggregation of the PRP platelets after stimulation with collagen (PRP platelets [3]; 10 min 0.1 mM, 0 h): + | aggregation of the PRP platelets after stimulation with collagen (PRP platelets [3]; 10 min 1 mM, 0 h): + | aggregation of the PRP platelets after stimulation with collagen (PRP platelets [3]; 10 min 10 mM, 0 h): ++ | aggregation of the PRP platelets after stimulation with collagen (PRP platelets [3]; 10 min 10 mM, 24 h): ++ | aggregation of the PRP platelets after stimulation with collagen (PRP platelets [3]; 10 min 10 mM, 48 h): ++ | aggregation of the PRP platelets after stimulation with collagen (PRP platelets [3]; 10 min 10 mM, 72 h): ++ | aggregation of the PRP platelets after stimulation with collagen (PRP platelets [3]; 10 min 10 mM, 216 h): ++ | aggregation of the PRP platelets after stimulation with collagen (PRP platelets [3]; 60 min 0.001 mM, 0 h): + | aggregation of the PRP platelets after stimulation with collagen (PRP platelets [3]; 60 min 0.01 mM, 0 h): + | aggregation of the PRP platelets after stimulation with collagen (PRP platelets [3]; 60 min 0.1 mM, 0 h): + | aggregation of the PRP platelets after stimulation with collagen (PRP platelets [3]; 60 min 1 mM, 0 h): + | aggregation of the PRP platelets after stimulation with collagen (PRP platelets [3]; 60 min 10 mM, 0 h): ++ | aggregation of the PRP platelets after stimulation with collagen (PRP platelets [3]; 60 min 10 mM, 24 h): ++ | aggregation of the PRP platelets after stimulation with collagen (PRP platelets [3]; 60 min 10 mM, 48 h): ++ | aggregation of the PRP platelets after stimulation with collagen (PRP platelets [3]; 60 min 10 mM, 72 h): ++ | number of cells in % relative to the number of cells at time 0 (PRP platelets [4]; 10 min 0.001 mM, 0 h): 100% | number of cells in % relative to the number of cells at time 0 (PRP platelets [4]; 10 min 0.001 mM, 72 h): 58.9% | number of cells in % relative to the number of cells at time 0 (PRP platelets [4]; 10 min 0.001 mM, 216 h): 55.1% | number of cells in % relative to the number of cells at time 0 (PRP platelets [4]; 10 min 0.01 mM, 0 h): 100% | number of cells in % relative to the number of cells at time 0 (PRP platelets [4]; 10 min 0.01 mM, 72 h): 66.0% | number of cells in % relative to the number of cells at time 0 (PRP platelets [4]; 10 min 0.01 mM, 216 h): 52.1% | number of cells in % relative to the number of cells at time 0 (PRP platelets [4]; 10 min 0.1 mM, 0 h): 100% | number of cells in % relative to the number of cells at time 0 (PRP platelets [4]; 10 min 0.1 mM, 72 h): 55.9% | number of cells in % relative to the number of cells at time 0 (PRP platelets [4]; 10 min 0.1 mM, 216 h): 50.8% | number of cells in % relative to the number of cells at time 0 (PRP platelets [4]; 10 min 1 mM, 0 h): 100% | number of cells in % relative to the number of cells at time 0 (PRP platelets [4]; 10 min 1 mM, 72 h): 59.1% | number of cells in % relative to the number of cells at time 0 (PRP platelets [4]; 10 min 1 mM, 216 h): 59.3% | number of cells in % relative to the number of cells at time 0 (PRP platelets [4]; 10 min 10 mM, 0 h): 100% | number of cells in % relative to the number of cells at time 0 (PRP platelets [4]; 10 min 10 mM, 72 h): 64.8% | number of cells in % relative to the number of cells at time 0 (PRP platelets [4]; 10 min 10 mM, 216 h): 47.9% | number of cells in % relative to the number of cells at time 0 (PRP platelets [4]; 60 min 0.001 mM, 0 h): 100% | number of cells in % relative to the number of cells at time 0 (PRP platelets [4]; 60 min 0.001 mM, 72 h): 83.8% | number of cells in % relative to the number of cells at time 0 (PRP platelets [4]; 60 min 0.001 mM, 216 h): 86.1% | number of cells in % relative to the number of cells at time 0 (PRP platelets [4]; 60 min 0.01 mM, 0 h): 100% | number of cells in % relative to the number of cells at time 0 (PRP platelets [4]; 60 min 0.01 mM, 72 h): 82.9% | number of cells in % relative to the number of cells at time 0 (PRP platelets [4]; 60 min 0.01 mM, 216 h): 94.8% | number of cells in % relative to the number of cells at time 0 (PRP platelets [4]; 60 min 0.1 mM, 0 h): 100% | number of cells in % relative to the number of cells at time 0 (PRP platelets [4]; 60 min 0.1 mM, 72 h): 76.3% | number of cells in % relative to the number of cells at time 0 (PRP platelets [4]; 60 min 0.1 mM, 216 h): 77.6% | number of cells in % relative to the number of cells at time 0 (PRP platelets [4]; 60 min 1 mM, 0 h): 100% | number of cells in % relative to the number of cells at time 0 (PRP platelets [4]; 60 min 1 mM, 72 h): 29.9% | number of cells in % relative to the number of cells at time 0 (PRP platelets [4]; 60 min 1 mM, 216 h): 62.9% | number of cells in % relative to the number of cells at time 0 (PRP platelets [4]; 60 min 10 mM, 0 h): 100% | number of cells in % relative to the number of cells at time 0 (PRP platelets [4]; 60 min 10 mM, 72 h): 51.8% | number of cells in % relative to the number of cells at time 0 (PRP platelets [4]; 60 min 10 mM, 216 h): 43.4% | platelets survived after storage (PRP platelets [4]; storage of 72 and 216 hours at 4° C., vs. no compound): substantial more platelets survived
